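Where inhibition never reached the appropriate level, the endpoint shown equals the highest concentration tested. Otherwise, values were interpolated linearly from a five-concentration, 48-hour dose response in 96-well plates. GI50 marks 50% less growth. TGI: total growth inhibition.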
How the values were obtained:
Experiment in all cases: growth of human tumour cells (NCI), 48 h
NCI-H226 lung = test system: NCI-H226 lung
NCI-H23 lung = test system: NCI-H23 lung
NCI-H460 lung = test system: NCI-H460 lung
NCI-H522 lung = test system: NCI-H522 lung
NCI/ADR-RES ovarian = test system: NCI/ADR-RES ovarian
OVCAR-3 ovarian = test system: OVCAR-3 ovarian
OVCAR-4 ovarian = test system: OVCAR-4 ovarian
OVCAR-5 ovarian = test system: OVCAR-5 ovarian
OVCAR-8 ovarian = test system: OVCAR-8 ovarian
PC-3 prostate = test system: PC-3 prostate
RPMI-8226 leukemia = test system: RPMI-8226 leukemia
RXF 393 renal = test system: RXF 393 renal
SF-268 CNS = test system: SF-268 CNS
SF-295 CNS = test system: SF-295 CNS
SF-539 CNS = test system: SF-539 CNS
SK-MEL-2 melanoma = test system: SK-MEL-2 melanoma
SK-MEL-28 melanoma = test system: SK-MEL-28 melanoma
SK-MEL-5 melanoma = test system: SK-MEL-5 melanoma
SK-OV-3 ovarian = test system: SK-OV-3 ovarian
SN12C renal = test system: SN12C renal
SNB-19 CNS = test system: SNB-19 CNS
SNB-75 CNS = test system: SNB-75 CNS
SR leukemia = test system: SR leukemia
SW-620 colon = test system: SW-620 colon
T-47D breast = test system: T-47D breast
TK-10 renal = test system: TK-10 renal
U251 CNS = test system: U251 CNS
UACC-257 melanoma = test system: UACC-257 melanoma
UACC-62 melanoma = test system: UACC-62 melanoma
UO-31 renal = test system: UO-31 renal

Compound: O=C1c2c(c3c4cc(F)ccc4oc3c3[nH]c4ccc(Br)cc4c23)C(=O)N1O
- TGI (NCI-H226 lung): > 100 µM
- GI50 (NCI-H23 lung): 0.471 µM
- TGI (NCI-H23 lung): 11.7 µM
- GI50 (NCI-H460 lung): 0.393 µM
- TGI (NCI-H460 lung): > 100 µM
- GI50 (NCI-H522 lung): 0.286 µM
- TGI (NCI-H522 lung): 5.82 µM
- GI50 (NCI/ADR-RES ovarian): 0.578 µM
- TGI (NCI/ADR-RES ovarian): > 100 µM
- GI50 (OVCAR-3 ovarian): 45 µM
- TGI (OVCAR-3 ovarian): > 100 µM
- GI50 (OVCAR-4 ovarian): > 100 µM
- TGI (OVCAR-4 ovarian): > 100 µM
- GI50 (OVCAR-5 ovarian): > 100 µM
- TGI (OVCAR-5 ovarian): > 100 µM
- GI50 (OVCAR-8 ovarian): 1.47 µM
- TGI (OVCAR-8 ovarian): > 100 µM
- GI50 (PC-3 prostate): 0.926 µM
- TGI (PC-3 prostate): > 100 µM
- GI50 (RPMI-8226 leukemia): 1.86 µM
- TGI (RPMI-8226 leukemia): > 100 µM
- GI50 (RXF 393 renal): 3.76 µM
- TGI (RXF 393 renal): 32.8 µM
- GI50 (SF-268 CNS): 0.844 µM
- TGI (SF-268 CNS): > 100 µM
- GI50 (SF-295 CNS): 1.24 µM
- TGI (SF-295 CNS): > 46.4 µM
- GI50 (SF-539 CNS): 0.381 µM
- TGI (SF-539 CNS): 4.34 µM
- GI50 (SK-MEL-2 melanoma): 18.6 µM
- TGI (SK-MEL-2 melanoma): 45.4 µM
- GI50 (SK-MEL-28 melanoma): 5.84 µM
- TGI (SK-MEL-28 melanoma): > 100 µM
- GI50 (SK-MEL-5 melanoma): 1.42 µM
- TGI (SK-MEL-5 melanoma): 15 µM
- GI50 (SK-OV-3 ovarian): 3.72 µM
- TGI (SK-OV-3 ovarian): 37.6 µM
- GI50 (SN12C renal): 0.473 µM
- TGI (SN12C renal): > 100 µM
- GI50 (SNB-19 CNS): 0.678 µM
- TGI (SNB-19 CNS): > 79.9 µM
- GI50 (SNB-75 CNS): 0.656 µM
- TGI (SNB-75 CNS): 8.39 µM
- GI50 (SR leukemia): 0.131 µM
- TGI (SR leukemia): > 100 µM
- GI50 (SW-620 colon): 0.477 µM
- TGI (SW-620 colon): > 100 µM
- GI50 (T-47D breast): 3.22 µM
- TGI (T-47D breast): > 100 µM
- GI50 (TK-10 renal): 24.9 µM
- TGI (TK-10 renal): 72.5 µM
- GI50 (U251 CNS): 0.641 µM
- TGI (U251 CNS): > 100 µM
- GI50 (UACC-257 melanoma): > 100 µM
- TGI (UACC-257 melanoma): > 100 µM
- GI50 (UACC-62 melanoma): 0.799 µM
- TGI (UACC-62 melanoma): 14.6 µM
- GI50 (UO-31 renal): 0.439 µM
- TGI (UO-31 renal): > 100 µM

From PubChem BioAssay (NCI)
